Our source for the IC50 values is patent publication US10752612B2, “PLK4 inhibitors” (LUDWIG INSTITUTE FOR CANCER RESEARCH LTD, priority 2015, dated 2020).

Molecules are shown by their SMILES.

For this assay, the target named is T1, human Plk4 kinase domain (aa 2-275) (Homo sapiens, UniProt O00444).
T1 construct: purified 6×His-tagged human Plk4 kinase domain (aa 2-275); 6xHis; made in house; host or cells: E. coli
T1 sequence (O00444 2-275): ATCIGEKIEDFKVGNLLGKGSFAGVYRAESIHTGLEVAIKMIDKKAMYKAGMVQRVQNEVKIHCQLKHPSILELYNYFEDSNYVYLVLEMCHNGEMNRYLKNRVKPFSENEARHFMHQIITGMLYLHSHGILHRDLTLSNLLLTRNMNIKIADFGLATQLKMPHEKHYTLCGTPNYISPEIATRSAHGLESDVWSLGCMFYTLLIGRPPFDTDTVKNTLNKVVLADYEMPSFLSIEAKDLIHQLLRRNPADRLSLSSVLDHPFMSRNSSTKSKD
Put plainly: Plk4 kinase assay (ADP-Glo). The format is biochemical. Conditions: Table 1. The procedure: Kinase assays. […] The Plk4 concentration in the final reaction was 2.5-10 nM with a final pH of 8.0. […] Reactions were allowed to proceed for 4-16 hours at 25° C. Detection was performed using ADP-Glo reagent (Promega), following manufacturer's instructions. Luminescence was measured on an Infinite M1000 plate reader (Tecan). Data were fit using Prism (GraphPad) and Kis were calculated from IC50 data using the Cheng and Prusoff equation (37) or the Copeland formalism for tight-binding inhibitors (38).
Compound `CCc1c(Nc2cc(C)[nH]n2)nc(Sc2ccc(NC(=O)C3CC3)cc2)nc1N1CCN(C)CC1` had an IC50 of over 1000 nM.

Take `CCNc1nc(Sc2ccc(NC(=O)C3CC3)cc2)nc(Nc2cc(C)[nH]n2)c1C`: the IC50 is under 1000 nM. On to `CCCC(=O)Nc1ccc(Sc2nc(Nc3cc(C)[nH]n3)c(C)c(N3CCN(C)CC3)n2)cc1`, for which the IC50 is under 1000 nM. On to `Cc1cc(Nc2nc(Sc3ccc(NC(=O)C4CC4)cc3)nc(NC(C)C)c2C)n[nH]1`, for which the IC50 is under 1000 nM.

As to `CCN(C)c1nc(Sc2ccc(NC(C)=O)cc2)nc(Nc2cc(C)[nH]n2)c1C`, the IC50 was under 1000 nM.

Take `CC(=O)Nc1ccc(Sc2nc(Nc3cc(C)[nH]n3)c(C)c(N(C)C)n2)cc1`: the IC50 is under 1000 nM. `CC(=O)Nc1ccc(Sc2nc(Nc3cc(C)[nH]n3)c(C)c(N3CCCCC3)n2)cc1` displayed an IC50 of under 1000 nM. `COc1c(Nc2cc(C)[nH]n2)nc(Sc2ccc(NC(=O)C3CC3)cc2)nc1N1CCN(C(C)(C)C)CC1` registered an IC50 of over 1000 nM.

`COCCN(C)c1nc(Sc2ccc(NC(C)=O)cc2)nc(Nc2cc(C)[nH]n2)c1C` displayed an IC50 of under 1000 nM. As for `COc1c(Nc2cc(C)[nH]n2)nc(Sc2ccc(NC(C)=O)cc2)nc1NC1CCNCC1`, the IC50 is under 1000 nM.

Consider `CCc1cc(Nc2nc(SC)nc(N3CCN(CCN(C)C)CC3)c2OC)n[nH]1`, for which the IC50 is under 1000 nM. The figure for `CCc1cc(Nc2nc(SC)nc(N3CCN(CCN(C)C)CC3)c2C)n[nH]1` is under 1000 nM. The figure for `COc1c(Nc2cc(C)[nH]n2)nc(Sc2ccc(NC(C)=O)nc2)nc1N1CCOCC1` is under 1000 nM; for `COc1c(Nc2cc(C)[nH]n2)nc(Sc2ccc(S(=O)(=O)C(C)(C)c3cccc([N+](=O)[O-])c3F)cc2F)nc1N1CCN(C(C)=O)CC1` it is under 1000 nM.

In turn, `COc1c(Nc2cc(C)[nH]n2)nc(Sc2ccc(S(=O)(=O)Cc3cccc([N+](=O)[O-])c3F)cc2F)nc1N1CCC(NC(C)=O)CC1` registered an IC50 of under 1000 nM. Turning to `COc1c(Nc2cc(C)[nH]n2)nc(Sc2ccc(S(=O)(=O)C3(c4cccc([N+](=O)[O-])c4F)CC3)cc2F)nc1N1CCC(CN(C)C)CC1`, the IC50 was under 1000 nM. To `COc1c(Nc2cc(C)[nH]n2)nc(Sc2ccc(S(=O)(=O)C3(c4cccc([N+](=O)[O-])c4F)CC3)cc2F)nc1N1CCC(C(N)=O)CC1` belongs under 1000 nM. The figure for `COc1c(Nc2cc(C)[nH]n2)nc(Sc2ccc(S(=O)(=O)C(C)(C)c3c(F)c(F)cc(F)c3F)cc2F)nc1N1CCC(N)CC1` is under 1000 nM; for `COc1c(Nc2cc(C)[nH]n2)nc(Sc2ccc(S(=O)(=O)Cc3cccc([N+](=O)[O-])c3F)cc2F)nc1N1CCC(CC(N)=O)CC1` it is under 1000 nM. To `COc1c(Nc2cc(C)[nH]n2)nc(Sc2ccc(S(=O)(=O)C3(c4cccc([N+](=O)[O-])c4F)CC3)cc2F)nc1N1CCC(CN)CC1` belongs under 1000 nM; to `COc1c(Nc2cc(C)[nH]n2)nc(Sc2ccc(S(=O)(=O)C(C)(C)c3cccc([N+](=O)[O-])c3F)cc2F)nc1N1CCN(CCNC(=O)C(F)(F)F)CC1`, under 1000 nM; to `COc1c(Nc2cc(C)[nH]n2)nc(Sc2cccc(NC(C)=O)c2)nc1N1CCN(CCN(C)C)CC1`, under 1000 nM. For `COc1c(Nc2cc(C)[nH]n2)nc(Sc2cccc(NC(C)=O)c2)nc1N1CCOCC1`, the IC50 was under 1000 nM. To `COc1c(Nc2cc(C)[nH]n2)nc(Sc2ccc(NC(C)=O)cc2)nc1N1CCN(CC(=O)N2CCOCC2)CC1` belongs under 1000 nM. To `COc1c(Nc2cc(C)[nH]n2)nc(Sc2ccc(NC(C)=O)cc2)nc1N1CCN(CC(=O)N2CCCCC2)CC1` belongs under 1000 nM.

`Cc1cc(Nc2nc(Sc3ccc([N+](=O)[O-])cc3)nc3c2CCC32CCN(C(=O)C(C)(C)C)CC2)n[nH]1` displayed an IC50 of under 1000 nM.

Turning to `Cc1cc(Nc2nc(Sc3ccc([N+](=O)[O-])cc3)nc3c2CCC32CCNCC2)n[nH]1`, the IC50 was under 1000 nM. `CC(=O)Nc1ccc(Sc2nc(Nc3cc(C)[nH]n3)c3c(n2)C2(CC3)CCN(C(=O)C(C)(C)C)CC2)cc1` returned an IC50 of under 1000 nM.

For the compound `COc1c(Nc2cc(C)[nH]n2)nc(Sc2ccc([N+](=O)[O-])cc2)nc1N1CCN(CCN(C)C)CC1`, the IC50 is under 1000 nM.

The compound `COc1c(Nc2cc(C)[nH]n2)nc(Sc2ccc(NC(C)=O)cc2)nc1C1=CCNCC1` displayed an IC50 of under 1000 nM. The figure for `COc1c(Nc2cc(C)[nH]n2)nc(Sc2ccc(NC(C)=O)cc2)nc1N1CCN(CCN(C)C)C(C)C1` (stereo not drawn) is under 1000 nM.

In turn, `COc1c(Nc2cc(C)[nH]n2)nc(Sc2ccc(NC(C)=O)cc2)nc1C1=CCN(CC(=O)N(C)C)CC1` came in with an IC50 of under 1000 nM. To `COc1c(Nc2cc(C)[nH]n2)nc(Sc2ccc(NC(C)=O)cc2)nc1C1=CCN(CCN(C)C)CC1` belongs under 1000 nM. As for `CC(=O)Nc1ccc(Sc2nc(Nc3cc(C)[nH]n3)cc(N3CCN(CCN(C)C)CC3C)n2)cc1` (stereo not drawn), the IC50 was under 1000 nM. The figure for `COc1c(Nc2cc(C)[nH]n2)nc(Sc2ccc(NC(C)=O)cc2)nc1C1=CCN(C)CC1` is under 1000 nM. In the case of `CC(=O)Nc1ccc(Sc2nc(Nc3cc(C)[nH]n3)c3c(n2)C2(CC3)CCN(CCN(C)C)CC2)cc1`, the IC50 is under 1000 nM. The figure for `Cc1cc(Nc2nc(Sc3ccc([N+](=O)[O-])cc3)nc3c2CCC32CCN(CCN(C)C)CC2)n[nH]1` is under 1000 nM. With `Cc1cc(Nc2nc(Sc3ccc(N)cc3)nc3c2CCC32CCN(CCN(C)C)CC2)n[nH]1`, the concentration for half-maximal inhibition (IC50) is under 1000 nM. To `COc1c(Nc2cc(C)[nH]n2)nc(Sc2ccc(NC(C)=O)cc2)nc1N1CCN(CCN2CCCC2)CC1` belongs under 1000 nM; to `CCN(C)CCN1CCN(c2nc(Sc3ccc(NC(C)=O)cc3)nc(Nc3cc(C)[nH]n3)c2OC)CC1`, under 1000 nM. The figure for `COc1c(Nc2cc(C)[nH]n2)nc(Sc2ccc(NC(C)=O)cc2)nc1N1CCN(CCN)CC1` is under 1000 nM.

`CCN(CC)CCN1CCN(c2nc(Sc3ccc(NC(C)=O)cc3)nc(Nc3cc(C)[nH]n3)c2OC)CC1` came in with an IC50 of under 1000 nM. `COc1c(Nc2cc(C)[nH]n2)nc(Sc2ccc(NC(C)=O)cc2)nc1N1CCN(CCN2CCNCC2)CC1` came in with an IC50 of under 1000 nM. The figure for `COC(=O)Cc1cc(Nc2nc(SC)nc(N3CCN(CCN(C)C)CC3)c2OC)n[nH]1` is over 1000 nM; for `COc1c(Nc2cc(CC(=O)O)[nH]n2)nc(SC)nc1N1CCN(CCN(C)C)CC1` it is over 1000 nM. `CNC(=O)Cc1cc(Nc2nc(SC)nc(N3CCN(CCN(C)C)CC3)c2OC)n[nH]1` showed an IC50 of over 1000 nM. The figure for `COc1c(Nc2cc(C)[nH]n2)nc(Sc2ccc(NC(C)=O)cc2)nc1N1CCN(CCN2CCC(O)CC2)CC1` is 100 to 1000 nM; for `COc1c(Nc2cc(C)[nH]n2)nc(Sc2ccc(NC(C)=O)cc2)nc1N1CCC(CCN2CCCCC2)CC1` it is 100 to 1000 nM; for `COc1c(Nc2cc(C)[nH]n2)nc(Sc2ccc(NC(C)=O)cc2)nc1N1CCC(CC(=O)O)CC1` it is under 1000 nM.

Turning to `COc1c(Nc2cc(C)[nH]n2)nc(Sc2ccc(NC(C)=O)cc2)nc1N1CCN(CCN2CCN(C)CC2)CC1`, the IC50 was under 1000 nM. To `COC(=O)CC1CCN(c2nc(Sc3ccc(NC(C)=O)cc3)nc(Nc3cc(C)[nH]n3)c2OC)CC1` belongs under 1000 nM; to `COc1c(Nc2cc(C)[nH]n2)nc(Sc2ccc(NC(C)=O)cc2)nc1N1CCN(C(N)=O)CC1`, under 1000 nM; to `COc1c(Nc2cc(C)[nH]n2)nc(Sc2ccc(NC(C)=O)cc2)nc1N1CCN(CC(=O)O)CC1`, under 1000 nM. The figure for `COc1c(Nc2cc(C)[nH]n2)nc(Sc2ccc(NC(C)=O)cc2)nc1N1CCN(CC(N)=O)CC1` is under 1000 nM; for `COc1c(Nc2cc(C)[nH]n2)nc(Sc2ccc(NC(C)=O)cc2)nc1N1CC2CCC(C1)N2CCN(C)C` it is under 1000 nM; for `COc1c(Nc2cc(C)[nH]n2)nc(Sc2ccc(NC(C)=O)cc2)nc1N1CCC(CC(N)=O)CC1` it is under 1000 nM. To `COc1c(Nc2cc(C)[nH]n2)nc(Sc2ccc(NC(C)=O)cc2)nc1N1CCN(C(=N)NO)CC1` belongs under 1000 nM; to `COc1c(Nc2cc(C)[nH]n2)nc(Sc2ccc(NC(C)=O)cc2)nc1N1CCN(CCN(C)OC)CC1`, under 1000 nM; to `COc1c(Nc2cc(C)[nH]n2)nc(Sc2ccc(NC(C)=O)cc2)nc1N1CCN(CCNC(N)=O)CC1`, under 1000 nM. In turn, `COc1c(Nc2cc(C)[nH]n2)nc(Sc2ccc(NC(C)=O)cc2)nc1N1CC(C)N(CCN(C)C)C(C)C1` (stereo not drawn) returned an IC50 of under 1000 nM.

In turn, `COc1c(Nc2cc(C)[nH]n2)nc(Sc2ccc(NC(C)=O)cc2)nc1N1CCN(C(=N)N)CC1` showed an IC50 of under 1000 nM. Turning to `COC(=O)CN1CCN(c2nc(Sc3ccc(NC(C)=O)cc3)nc(Nc3cc(C)[nH]n3)c2OC)CC1`, the IC50 is under 1000 nM. As for `COc1c(Nc2cc(C)[nH]n2)nc(Sc2ccc(NC(C)=O)cc2)nc1N1CCN(CCN2CCCCCC2)CC1`, the IC50 was under 1000 nM. The figure for `COc1c(Nc2cc(C)[nH]n2)nc(Sc2ccc(NC(C)=O)cc2)nc1N1CCN(CCN2CCCCCCC2)CC1` is under 1000 nM; for `COc1c(Nc2cc(C)[nH]n2)nc(Sc2ccc(NC(C)=O)cc2)nc1N1CCN(CCNC(=N)N)CC1` it is under 1000 nM. To `COC(=O)c1ccc(Sc2nc(Nc3cc(C)[nH]n3)c(OC)c(N3CCN(CCN(C)C)CC3)n2)cc1` belongs under 1000 nM; to `COc1c(Nc2cc(C)[nH]n2)nc(Sc2ccc(NC(C)=O)cc2)nc1N1CCN(CCN(C)C)CC1`, under 1000 nM.

`COc1c(Nc2cc(C)[nH]n2)nc(Sc2ccc(NC(C)=O)cc2)nc1N1CCC(CC(=O)N(C)C)CC1` showed an IC50 of under 1000 nM. The figure for `COc1c(Nc2cc(C)[nH]n2)nc(Sc2ccc(NC(C)=O)cc2)nc1N1CCC(CC(=O)N2CCCCC2)CC1` is under 1000 nM.
